Assay results from patent US12171229B2, “Heteroaryl-triazole and heteroaryl-tetrazole compounds as pesticides” (BAYER AKTIENGESELLSCHAFT, priority 2018, dated 2024).

Legend:
Assay type in all cases: in vivo
[1] = system: Diabrotica balteata; test: Diabrotica balteata spray test; conditions: Diabrotica balteata, in Triticum aestivum, 168 h, after 7 days, larvae on wheat seeds, read-out: efficacy (seedlings grown up); for pest or weed control at 80 µg/disc, 250 g/ha: 80 μg/well (=250 g/ha); for pest or weed control at 160 µg/disc, 500 g/ha: 160 μg/well (=500 g/ha)
How it was run: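 Germinated wheat seeds (5 per well, 1 day on agar) sprayed with compound diluted in water containing 1000 ppm emulsifier, then infested with 10–20 D. balteata larvae. Efficacy scored after 7 days: 100% = seedlings like untreated uninfested control, 0% = no seedlings grown.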

[2] = system: Ctenocephalides felis; test: Ctenocephalides felis oral test; conditions: 48 h, 100 ppm in cattle blood, after 2 days, adult unfed cat fleas
How it was run: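 About 20 unfed adult cat fleas feed through parafilm on cattle blood dosed with compound from a DMSO stock. Blood chamber at 37° C, fleas at room temperature. Percent mortality scored after 2 days.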

[3] = system: Aedes aegypti strain MONHEIM; test: Aedes aegypti test (AEDSAE surface treatment & contact assay); conditions: 24 hours after contact, read-out: efficacy (mortality); for mortality at 4 mg/m2: surface concentration 4 mg/m^2, exposure 30 minutes; for mortality at 20 mg/m2: surface concentration 20 mg/m^2, exposure 30 minutes
How it was run: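 Compound dissolved in acetone (2 mg/ml) with 2000 ppm rapeseed oil methyl ester, applied to glazed tile and dried; adult strain MONHEIM mosquitoes exposed 30 minutes. Percent mortality scored 24 hours after contact.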

[4] = system: Ctenocephalides felis; test: Ctenocephalides felis in-vitro contact test, adult cat flea; conditions: 5 μg/cm^2 (=500 g/ha), after 48 hours, adult cat fleas, read-out: efficacy (fleas dead or moribund)
How it was run: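 Compound in acetone coated onto inner walls of glass tubes, e.g. 900 ppm giving 5 μg/cm². After drying, 5–10 adult C. felis added per tube and held at room temperature. At 48 h, fleas unable to escape a 45–50 °C heating plate within 5 min scored dead/moribund, giving % efficacy.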

[5] = system: Myzus persicae; test: Myzus persicae oral test; conditions: 120 h, after 5 days
How it was run: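 Aphid mortality (%) was recorded 5 days after a mixed Myzus persicae population began sucking, through parafilm, on compound solutions (acetone stock diluted with water) combined with sugar-supplemented IPL41 medium.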

[6] = system: Spodoptera frugiperda; test: Spodoptera frugiperda spray test; conditions: 168 h, after 7 days, larvae on maize leaf sections
How it was run: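 Compound mixed with solvent, diluted with 1000 ppm emulsifier water to test concentrations; sprayed on maize leaf pieces; dried; larvae added; mortality (%) scored at 7 d.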

[7] = system: Musca domestica strain WHO-N; test: Musca domestica test (MUSCDO surface treatment & contact assay); conditions: 24 hours after contact, read-out: efficacy (mortality); for mortality at 4 mg/m2: surface concentration 4 mg/m^2, exposure 30 minutes; for mortality at 20 mg/m2: surface concentration 20 mg/m^2, exposure 30 minutes
Procedure: Musca domestica test (MUSCDO surface treatment & contact assay)
(§1) Solvent: Aceton+2000 ppm rapeseed oil methyl ester (RME)
(§2) In order to produce a sufficient, active ingredient containing solution it is necessary to solve the test compound in the solvent-mix (acetone at 2 mg/ml/RME 2000 ppm). This solution is pipetted onto a glazed tile and after evaporation of the acetone, adult flies of the species Musca domestica strain WHO-N are placed onto the dried surface. The exposure time is 30 minutes.
Mortality in percent (%) is determined 24 hours after contact of the insects to the treated surface. 100% morality means that all tested insects are dead, whereas 0% means that no insect died.

[8] = system: Anopheles funestus strain FUMOZ-R; test: Anopheles funestus test (ANPHFU surface treatment & contact assay); conditions: 24 hours after contact, read-out: efficacy (mortality); for mortality at 4 mg/m2: surface concentration 4 mg/m^2, exposure 30 minutes; for mortality at 20 mg/m2: surface concentration 20 mg/m^2, exposure 30 minutes
Procedure: Anopheles funestus Test (ANPHFU Surface Treatment & Contact Assay)
as §1
as §2, with “mosquitoes” for “flies”, “Anopheles funestus” for “Musca domestica”, “FUMOZ-R (Hunt et al., Med. Vet. Entomol. 2005 September; 19(3): 271-275)” for “WHO-N”
Mortality in percent (%) is determined 24 hours after contact of the insects to the treated surface. 100% mortality means that all tested insects are dead, whereas 0% means that no insect died.

Structure (SMILES)	pest or weed control at 80 µg/disc, 250 g/ha [1]	pest or weed control at 160 µg/disc, 500 g/ha [1]	mortality at 100 ppm [2]	mortality at 4 mg/m2 [3]	mortality at 20 mg/m2 [3]	pest or weed control at 5 µg/cm2 [4]	mortality at 4 ppm [5]	mortality at 20 ppm ([5]; 20 ppm)	mortality at 100 g/ha [6]	mortality at 500 g/ha [6]	mortality at 4 mg/m2 [7]	mortality at 20 mg/m2 [7]	mortality at 4 mg/m2 [8]	mortality at 20 mg/m2 [8]
CC(c1ncnn1-c1ccc(C#N)cn1)N(CC1CC1)C(=O)c1cc(Cl)cc(C(F)(F)F)c1 (centres unmarked) [Example I-007]	100%	100%	100%	90 to 100%	90 to 100%	100%	90%	100%	100%	100%	90 to 100%	90 to 100%	–	–
C[C@H](NC(=O)c1cc(Cl)cc(C(F)(F)F)c1)c1ncnn1-c1ccc(C#N)cn1 [Example I-009]	100%	–	100%	90 to 100%	90 to 100%	100%	100%	–	100%	100%	90 to 100%	90 to 100%	–	–
C[C@H](NC(=O)c1cc(Cl)cc(C(F)(F)F)c1)c1ncnn1-c1ncc(Cl)cc1F [Example I-013]	100%	100%	100%	90 to 100%	90 to 100%	–	–	–	100%	100%	–	90 to 100%	85 to 100%	90 to 100%
C[C@H](NC(=O)c1cc(Cl)cc(C(F)(F)F)c1)c1ncnn1-c1cc(C#N)ccn1 [Example I-015]	100%	–	100%	90 to 100%	90 to 100%	100%	100%	–	100%	100%	–	90 to 100%	–	90 to 100%
C[C@H](NC(=O)c1cc(F)cc(C#N)c1)c1ncnn1-c1ccc(C#N)cn1 [Example I-018]	100%	100%	100%	90 to 100%	90 to 100%	100%	90%	–	100%	100%	90 to 100%	90 to 100%	85 to 100%	90 to 100%
C[C@H](NC(=O)c1cc(F)cc(C(F)(F)F)c1)c1ncnn1-c1ccc(C#N)cn1 [Example I-019]	100%	100%	100%	90 to 100%	90 to 100%	100%	–	–	100%	100%	90 to 100%	90 to 100%	85 to 100%	90 to 100%
C[C@H](NC(=O)c1cc(Cl)cc(C(F)(F)F)c1)c1ncnn1-c1ccc([N+](=O)[O-])cn1 [Example I-028]	100%	100%	100%	90 to 100%	90 to 100%	–	100%	–	100%	100%	90 to 100%	90 to 100%	85 to 100%	90 to 100%
C[C@H](NC(=O)c1cc(Cl)cc(C(F)(F)F)c1)c1ncnn1-c1ccc(NC(=O)C2CC2)cn1 [Example I-034, 3-chloro-N-[(1S)-1-(1-{5-[(cyclopropylcarbonyl)amino]pyridin-2-yl}-1H-1,2,4-triazol-5-yl)ethyl]-5-(trifluoromethyl)benzamide]	100%	100%	100%	90 to 100%	90 to 100%	100%	100%	–	100%	100%	–	90 to 100%	85 to 100%	–
C[C@H](NC(=O)c1cc(Cl)cc(OC(F)(F)F)c1)c1ncnn1-c1ccc(C#N)cn1 [Example I-041, 3-chloro-N-{(1S)-1-[1-(5-cyanopyridin-2-yl)-1H-1,2,4-triazol-5-yl]ethyl}-5-(trifluoromethoxy)benzamide]	100%	100%	100%	90 to 100%	90 to 100%	100%	100%	–	100%	100%	90 to 100%	90 to 100%	85 to 100%	90 to 100%
C[C@H](NC(=O)c1cc(Cl)cc(SC(F)(F)F)c1)c1ncnn1-c1ccc(C#N)cn1 [Example I-042]	100%	100%	100%	90 to 100%	90 to 100%	90%	100%	–	100%	100%	90 to 100%	90 to 100%	85 to 100%	90 to 100%
C[C@H](NC(=O)c1cc(Cl)cc(Br)c1)c1ncnn1-c1ccc(C#N)cn1 [Example I-046]	100%	100%	100%	90 to 100%	90 to 100%	100%	100%	–	100%	100%	90 to 100%	90 to 100%	85 to 100%	90 to 100%
C[C@H](NC(=O)c1cc(Cl)cc(Cl)c1)c1ncnn1-c1ccc(C#N)cn1 [Example I-047]	100%	100%	100%	90 to 100%	90 to 100%	100%	–	–	100%	100%	90 to 100%	90 to 100%	85 to 100%	90 to 100%
C[C@H](NC(=O)c1cc(Cl)cc(S(F)(F)(F)(F)F)c1)c1ncnn1-c1ccc(C#N)cn1 [Example I-048]	100%	100%	100%	90 to 100%	90 to 100%	100%	100%	–	100%	100%	90 to 100%	90 to 100%	85 to 100%	–
Cc1nc([C@H](C)NC(=O)c2cc(C(F)(F)F)cc(C(F)(F)F)c2)n(-c2ccc(C#N)cn2)n1 [Example I-056]	100%	100%	100%	90 to 100%	90 to 100%	100%	100%	–	100%	100%	90 to 100%	90 to 100%	–	–
